Measured values from ChEMBL document CHEMBL1132736, “Identification of optimal anion spacing for anti-HIV activity in a series of cosalane tetracarboxylates” (Bioorg Med Chem Lett, 2000).
Blank lines part the entries; values can stand above or below the molecule they belong to.

Experiments:
Details in all cases: Homo sapiens
MT4 [1] = assay: Concentration of compound required to reduce the cellular viability in uninfected MT-4 cells by 50%; format: functional
CEM-SS [2] = assay: Concentration of compound required to reduce the cellular viability in uninfected CEM-SS cells by 50%; format: functional
MT4 [3] = assay: Effective concentration of compound required to reduce the cytopathic effect of HIV-2ROD in MT-4 cells by 50%; format: functional, cell-based
CEM-SS [4] = assay: Effective concentration of compound required to reduce the cytopathic effect of HIV-1RF in CEM-SS cells by 50%; format: functional, cell-based
MT4 [5] = assay: Effective concentration of compound required to reduce the cytopathic effect of HIV-1 IIIB in MT-4 cells by 50%; format: functional, cell-based

SMILES: CC(C)CCCC(C)[C@H]1CC[C@H]2[C@@H]3CCC4C[C@@H](CCC=C(c5cc(Cl)c(O)c(C(=O)O)c5)c5cc(Cl)c(O)c(C(=O)O)c5)CC[C@]4(C)[C@H]3CC[C@]12C (stereo not given in full)
- CC50 (MT4 [1]): > 200 µM
- CC50 (CEM-SS [2]): > 200 µM

SMILES: CC(C)CCCC(C)[C@H]1CC[C@H]2[C@@H]3CCC4C[C@@H](CCC=C(c5cc(Cl)c(OCc6cccc(C(=O)O)c6)c(C(=O)O)c5)c5cc(Cl)c(OCc6cccc(C(=O)O)c6)c(C(=O)O)c5)CC[C@]4(C)[C@H]3CC[C@]12C (stereo not given in full)
- CC50 (MT4 [1]): 29 µM
- CC50 (CEM-SS [2]): > 316 µM

SMILES: CC(C)CCCC(C)[C@H]1CC[C@H]2[C@@H]3CCC4C[C@@H](CCC=C(c5cc(Cl)c(OCc6ccc(-c7cccc(C(=O)O)c7)cc6)c(C(=O)O)c5)c5cc(Cl)c(OCc6ccc(-c7cccc(C(=O)O)c7)cc6)c(C(=O)O)c5)CC[C@]4(C)[C@H]3CC[C@]12C (stereo not given in full)
- EC50 (MT4 [3]): > 95 µM
- CC50 (MT4 [1]): 95 µM
- EC50 (CEM-SS [4]): 6.11 µM
- CC50 (CEM-SS [2]): > 200 µM
- EC50 (MT4 [5]): 14.5 µM

SMILES: CC(C)CCCC(C)[C@H]1CC[C@H]2[C@@H]3CCC4C[C@@H](CCC=C(c5cc(Cl)c(OCc6ccc(C(=O)O)cc6)c(C(=O)O)c5)c5cc(Cl)c(OCc6ccc(C(=O)O)cc6)c(C(=O)O)c5)CC[C@]4(C)[C@H]3CC[C@]12C (stereo not given in full)
- EC50 (MT4 [3]): 22 µM
- CC50 (MT4 [1]): 88 µM
- CC50 (CEM-SS [2]): 72 µM

- EC50 (CEM-SS [4]): > 100 µM
SMILES: CC(C)CCCC(C)[C@H]1CC[C@H]2[C@@H]3CCC4C[C@@H](CCC=C(c5cc(Cl)c(OCc6ccc(-c7ccc(C(=O)O)cc7)cc6)c(C(=O)O)c5)c5cc(Cl)c(OCc6ccc(-c7ccc(C(=O)O)cc7)cc6)c(C(=O)O)c5)CC[C@]4(C)[C@H]3CC[C@]12C (stereo not given in full)
- EC50 (MT4 [3]): > 80 µM
- CC50 (MT4 [1]): 80 µM
- CC50 (CEM-SS [2]): > 100 µM
- EC50 (MT4 [5]): > 80 µM

- EC50 (CEM-SS [4]): 1.78 µM
SMILES: CC(C)CCCC(C)[C@H]1CC[C@H]2[C@@H]3CCC4C[C@@H](CCC=C(c5cc(Cl)c(OCc6ccc(CC(=O)O)cc6)c(C(=O)O)c5)c5cc(Cl)c(OCc6ccc(CC(=O)O)cc6)c(C(=O)O)c5)CC[C@]4(C)[C@H]3CC[C@]12C (stereo not given in full)
- EC50 (MT4 [3]): 124 µM
- CC50 (MT4 [1]): > 125 µM
- CC50 (CEM-SS [2]): 133 µM
- EC50 (MT4 [5]): 4.4 µM

SMILES: CC(C)CCCC(C)[C@H]1CC[C@H]2[C@@H]3CCC4C[C@@H](CCC=C(c5cc(Cl)c(OCc6ccccc6C(=O)O)c(C(=O)O)c5)c5cc(Cl)c(OCc6ccccc6C(=O)O)c(C(=O)O)c5)CC[C@]4(C)[C@H]3CC[C@]12C (stereo not given in full)
- CC50 (MT4 [1]): 37 µM
- EC50 (CEM-SS [4]): 39.8 µM
- CC50 (CEM-SS [2]): > 316 µM

- EC50 (CEM-SS [4]): 5.17 µM
SMILES: CC(C)CCCC(C)[C@H]1CC[C@H]2[C@@H]3CCC4C[C@@H](CCC=C(c5cc(Cl)c(OCc6ccc(-c7ccccc7C(=O)O)cc6)c(C(=O)O)c5)c5cc(Cl)c(OCc6ccc(-c7ccccc7C(=O)O)cc6)c(C(=O)O)c5)CC[C@]4(C)[C@H]3CC[C@]12C (stereo not given in full)
- EC50 (MT4 [3]): > 125 µM
- CC50 (MT4 [1]): > 125 µM
- CC50 (CEM-SS [2]): > 200 µM
- EC50 (MT4 [5]): 12.1 µM
